Measured values reported in ChEMBL document CHEMBL1128772, “Methylenedioxyphenyl substituted compounds from Piper species as inhibitors of liver microsome-mediated aflatoxin B1-DNA binding in vitro” (Bioorg Med Chem Lett, 1995).

What was measured:
Nucleic Acid [1] = experiment: In vitro binding affinity to rat liver microsome-mediated AFB1-DNA using [3H]- AFB1 radioligand assay at concentration of 10 uM; format: microsomes
Nucleic Acid [2] = experiment: Tested in vitro for inhibition of rat liver microsome-mediated AFB1-DNA at concentration of 10 uM; format: microsomes
Nucleic Acid [3] = experiment: Tested in vitro for inhibition of rat liver microsome-mediated AFB1-DNA at concentration of 50 uM; format: microsomes
Nucleic Acid [4] = experiment: In vitro binding affinity to rat liver microsome-mediated AFB1-DNA using [3H]- AFB1 radioligand assay at concentration of 50 uM
Nucleic Acid [5] = experiment: Tested in vitro for inhibition of rat liver microsome-mediated AFB1-DNA at concentration of 100 uM; format: microsomes
Nucleic Acid [6] = experiment: In vitro binding affinity to rat liver microsome-mediated AFB1-DNA using [3H]- AFB1 radioligand assay at concentration of 100 uM; format: microsomes

## O=C(/C=C/C=C/c1ccc2c(c1)OCO2)N1CCCCC1
Nucleic Acid [1]
  Binding (pM 30min-1 (mg of DNA)-1): 96.6
Nucleic Acid [2]
  inhibition: 27%
Nucleic Acid [3]
  inhibition: 47%
Nucleic Acid [4]
  Binding (pM 30min-1 (mg of DNA)-1): 70
Nucleic Acid [5]
  inhibition: 57%
Nucleic Acid [6]
  Binding (pM 30min-1 (mg of DNA)-1): 56.6

## C=CCC1=C[C@]2(OC)[C@H](C)[C@@H](c3ccc4c(c3)OCO4)O[C@]2(OC)C[C@@H]1O
Nucleic Acid [1]
  Binding (pM 30min-1 (mg of DNA)-1): 91
Nucleic Acid [2]
  inhibition: 31%
Nucleic Acid [3]
  inhibition: 64%
Nucleic Acid [4]
  Binding (pM 30min-1 (mg of DNA)-1): 48
Nucleic Acid [5]
  inhibition: 81%
Nucleic Acid [6]
  Binding (pM 30min-1 (mg of DNA)-1): 24.8

## c1cc2c(cc1[C@H]1OC[C@H]3[C@@H]1CO[C@H]3c1ccc3c(c1)OCO3)OCO2
Nucleic Acid [1]
  Binding (pM 30min-1 (mg of DNA)-1): 105
Nucleic Acid [2]
  inhibition: 21%
Nucleic Acid [3]
  inhibition: 42%
Nucleic Acid [4]
  Binding (pM 30min-1 (mg of DNA)-1): 76.5
Nucleic Acid [5]
  inhibition: 48%
Nucleic Acid [6]
  Binding (pM 30min-1 (mg of DNA)-1): 68.2

## C=CCC1=C[C@]2(OC)[C@H](C)[C@@H](c3ccc4c(c3)OCO4)O[C@]2(OC)CC1=O
Nucleic Acid [1]
  Binding (pM 30min-1 (mg of DNA)-1): 127
Nucleic Acid [2]
  inhibition: 9%
Nucleic Acid [3]
  inhibition: 21%
Nucleic Acid [4]
  Binding (pM 30min-1 (mg of DNA)-1): 110
Nucleic Acid [5]
  inhibition: 23%
Nucleic Acid [6]
  Binding (pM 30min-1 (mg of DNA)-1): 108

## COC(=O)/C=C/C=C/c1ccc2c(c1)OCO2
Nucleic Acid [1]
  Binding (pM 30min-1 (mg of DNA)-1): 110
Nucleic Acid [2]
  inhibition: 16%
Nucleic Acid [3]
  inhibition: 42%
Nucleic Acid [4]
  Binding (pM 30min-1 (mg of DNA)-1): 76
Nucleic Acid [5]
  inhibition: 61%
Nucleic Acid [6]
  Binding (pM 30min-1 (mg of DNA)-1): 50.7

## C=CCC1=C[C@@](OC)([C@H](C)Cc2ccc3c(c2)OCO3)C(OC)=CC1=O
Nucleic Acid [1]
  Binding (pM 30min-1 (mg of DNA)-1): 124
Nucleic Acid [2]
  inhibition: 11%
Nucleic Acid [3]
  inhibition: 12%
Nucleic Acid [4]
  Binding (pM 30min-1 (mg of DNA)-1): 123
Nucleic Acid [5]
  inhibition: 13%
Nucleic Acid [6]
  Binding (pM 30min-1 (mg of DNA)-1): 122
